Results: PubChem BioAssay AID743475 (The Scripps Research Institute Molecular Screening Center, 2014)
Calls of active or inactive are those of the source. How the calls were made is not given here.

System: OTUB2
Assay: late-stage follow-up, selectivity assay for CCHF vOTU protease inhibitor project, biochemical, fluorescence, assay provider (AID 743475)
Details: recombinant OTUB2, fluorogenic ubiquitin substrate, active compounds read high

O=C1Cc2ccccc2C(=O)N1
inhibition (run 1, at 0.6 µM): 67.3%

CCc1cc[n+](C2=C(NS(=O)(=O)c3cccs3)C(=O)c3ccccc3C2=O)cc1
inhibition (run 1, at 14.16 µM): 54%

O=c1[nH]c(Nc2ccccc2)cc2cc(Br)ccc12
inhibition (run 1, at 1.45 µM): 57.8%

O=C1C=C(Nc2ccccc2)c2ccccc2C1=O
inhibition (run 1, at 15.55 µM): 75.6%

O=C(/C=C/c1ccc(O)cc1)c1ccc(NC2=C(N3CCCCC3)C(=O)c3ccccc3C2=O)cc1
inhibition (run 1, at 10.17 µM): 30.7%

CN(C1=C(NC(=O)c2ccccc2)C(=O)c2ccccc2C1=O)C1CCS(=O)(=O)C1 (centres undefined)
inhibition (run 2, at 19.2 µM): 57.8%

Cc1ccc(N2C(=O)[C@@H]3[C@H](C2=O)C2c4ccccc4C=CN2[C@@H]3C(=O)c2ccco2)cc1 (some centres undefined)
inhibition (run 1, at 5.2 µM): 55.4%

O=C(c1ccco1)[C@@H]1[C@@H]2C(=O)N(c3ccc(Br)cc3)C(=O)[C@@H]2C2c3ccccc3C=CN21 (some centres undefined)
inhibition (run 1, at 11.01 µM): 91.8%

O=C(NC1=C(NC2CCS(=O)(=O)C2)C(=O)c2ccccc2C1=O)c1ccccc1 (centres undefined)
inhibition (run 1, at 14.2 µM): 56.9%

NS(=O)(=O)c1ccc(NC2=CC(=O)C(=O)c3ccccc32)cc1
inhibition (run 1, at 11.51 µM): 78.7%

CC1(C)C=C2C(=NN(c3ccccc3)C(N)=C2C#N)CO1
inhibition (run 1, at 23.49 µM): 78.2%

COc1ccccc1NC(=O)COC(=O)c1ccc([N+](=O)[O-])s1
inhibition (run 1, at 35.07 µM): 61.9%

O=C(OCc1nnc(-c2ccccc2)o1)c1ccc([N+](=O)[O-])s1
inhibition (run 1, at 26.04 µM): 46.9%

CCn1nc(/C=C/c2ccccc2)nc2c(=O)n(C)c(=O)nc1-2
inhibition (run 1, at 0.49 µM): 98.8%

O=C1Cc2ccccc2C(=O)N1Cc1ccccc1
inhibition (run 1, at 1.31 µM): 68.4%

COc1cc(NC(=O)COC(=O)c2ccc([N+](=O)[O-])s2)cc(OC)c1OC
inhibition (run 1, at 21.72 µM): 41.2%

Cc1ccccc1-c1cc2c(nn1)-c1ccccc1C2=O
inhibition (run 2, at 4.46 µM): 23.3%

O=C1Cc2ccccc2C(=O)N1CCc1ccccc1
inhibition (run 2, at 3.02 µM): 14.9% (inactive)

Cc1ccc(NC2=CC(=O)C(=O)c3ccccc32)cc1
inhibition (run 1, at 12.24 µM): 78.7%

O=C(COC(=O)c1ccc([N+](=O)[O-])s1)NCc1ccc(F)cc1
inhibition (run 1, at 40.58 µM): 39.9%

COC(CNC(=O)c1ccc2c3c(onc13)-c1ccccc1C2=O)OC
inhibition (run 1, at 24.19 µM): 58.5%

O=C(COC(=O)c1ccc([N+](=O)[O-])s1)Nc1ncc(C(F)(F)F)cc1Cl
inhibition (run 1, at 27.79 µM): 42.3%

O=C(NC1=CC(=O)c2ccccc2C1=O)c1ccccc1
inhibition (run 1, at 12.37 µM): 46.4%

CC1COCC(C)N1C1=C(Cl)C(=O)c2ccccc2C1=O (centres undefined)
inhibition (run 1, at 14.67 µM): 23.6%

COc1ccc2noc3c2c1C(=O)c1ccccc1-3
inhibition (run 1, at 6.28 µM): 170%

Cn1nc(-c2ccccn2)nc2c(=O)n(C)c(=O)nc1-2
inhibition (run 1, at 1.16 µM): 98%

CCOC(=O)N=Nc1c2ccccc2c2nc3no[nH]c3nc12
inhibition (run 1, at 7.75 µM): 37.8%

NS(=O)(=O)c1ccc(NC(=O)COC(=O)c2ccc([N+](=O)[O-])s2)cc1
inhibition (run 1, at 29.01 µM): 37.5%

COC1=C(N)C(=O)c2nc(C)ccc2C1=O
inhibition (run 1, at 4.98 µM): 67.6%

CC1CCCC(NC(=O)COC(=O)c2ccc([N+](=O)[O-])s2)C1C (centres undefined)
inhibition (run 1, at 31.32 µM): 33.7%

Cc1c(Cl)cnc(NC(=O)COC(=O)c2ccc([N+](=O)[O-])s2)c1Cl
inhibition (run 1, at 20.44 µM): 49.9%

Cc1ccc2c(c1C)-c1c(ccc(C)c1C)C(=O)C2=O
inhibition (run 1, at 18.9 µM): 60.1%

O=C(COC(=O)c1ccc([N+](=O)[O-])s1)Nc1ccc(F)cc1
inhibition (run 1, at 26.34 µM): 40.3%

COc1cc(Br)c(C(=O)c2nccc3cc(OC)c(OC)cc23)cc1OC
inhibition (run 1, at 1.13 µM): 17.2% (inactive)
